Reference: US20200239530A1, “COMPOUNDS AND METHODS OF MODULATING PROTEIN DEGRADATION” (Vividion Therapeutics, Inc., priority 2017, published 2020)
Like-named read-outs stand apart in the source and are kept apart here. Blank lines part the entries; values can stand above or below the molecule they belong to.

Key:
Assay in all cases: Cysteine liganding, probe competition
Type in all cases: binding
UniProt Q7Z3V4 = molecular target: T1, UniProt Q7Z3V4 (Homo sapiens, UniProt Q7Z3V4)
T1 construct: 200 μL of lysate containing 5 mg/ml proteome was treated with 2 μL of 100× compound stock; endogenous in cells
T1 sequence (Q7Z3V4 1-1068): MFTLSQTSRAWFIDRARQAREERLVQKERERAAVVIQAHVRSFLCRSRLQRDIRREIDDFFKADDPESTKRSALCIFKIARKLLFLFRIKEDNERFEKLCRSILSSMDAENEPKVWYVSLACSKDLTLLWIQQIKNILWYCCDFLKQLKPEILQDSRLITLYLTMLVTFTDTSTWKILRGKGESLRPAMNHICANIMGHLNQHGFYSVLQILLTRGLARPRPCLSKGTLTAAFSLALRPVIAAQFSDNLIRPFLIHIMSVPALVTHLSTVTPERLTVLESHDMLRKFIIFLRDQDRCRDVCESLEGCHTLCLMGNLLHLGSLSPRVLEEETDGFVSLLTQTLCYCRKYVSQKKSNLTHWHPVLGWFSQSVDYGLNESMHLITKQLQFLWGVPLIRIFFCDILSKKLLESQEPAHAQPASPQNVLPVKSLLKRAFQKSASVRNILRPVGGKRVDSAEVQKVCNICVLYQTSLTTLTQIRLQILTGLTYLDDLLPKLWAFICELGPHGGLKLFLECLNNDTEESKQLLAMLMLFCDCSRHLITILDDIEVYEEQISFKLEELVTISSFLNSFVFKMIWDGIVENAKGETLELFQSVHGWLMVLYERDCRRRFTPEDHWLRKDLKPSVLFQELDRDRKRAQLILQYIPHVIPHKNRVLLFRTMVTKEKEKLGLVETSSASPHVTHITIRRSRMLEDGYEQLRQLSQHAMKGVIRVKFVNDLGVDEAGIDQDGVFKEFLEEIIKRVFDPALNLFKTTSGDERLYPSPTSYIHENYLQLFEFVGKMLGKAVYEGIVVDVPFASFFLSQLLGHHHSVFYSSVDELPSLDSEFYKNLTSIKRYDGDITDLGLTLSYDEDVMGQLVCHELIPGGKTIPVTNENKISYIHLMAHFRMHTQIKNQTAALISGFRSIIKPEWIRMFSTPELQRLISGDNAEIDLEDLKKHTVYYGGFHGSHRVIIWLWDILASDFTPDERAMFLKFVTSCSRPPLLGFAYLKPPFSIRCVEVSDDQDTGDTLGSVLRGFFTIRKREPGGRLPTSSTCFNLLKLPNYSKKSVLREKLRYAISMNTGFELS
Excerpt: (§1) The following 96-well sample prep protocol was used for sample preparation.

UniProt Q9BUL5 = molecular target: T2, UniProt Q9BUL5 (Homo sapiens, UniProt Q9BUL5)
T2 construct: 200 μL of lysate containing 5 mg/ml proteome was treated with 2 μL of 100× compound stock; endogenous in cells
Excerpt: as §1

UniProt Q13064 = molecular target: T3, UniProt Q13064 (Homo sapiens, UniProt Q13064)
T3 construct: Cells were resuspended in cold PBS on ice and sonicated with a probe sonicator to achieve lysis; endogenous in cells
T3 sequence (Q13064 1-507): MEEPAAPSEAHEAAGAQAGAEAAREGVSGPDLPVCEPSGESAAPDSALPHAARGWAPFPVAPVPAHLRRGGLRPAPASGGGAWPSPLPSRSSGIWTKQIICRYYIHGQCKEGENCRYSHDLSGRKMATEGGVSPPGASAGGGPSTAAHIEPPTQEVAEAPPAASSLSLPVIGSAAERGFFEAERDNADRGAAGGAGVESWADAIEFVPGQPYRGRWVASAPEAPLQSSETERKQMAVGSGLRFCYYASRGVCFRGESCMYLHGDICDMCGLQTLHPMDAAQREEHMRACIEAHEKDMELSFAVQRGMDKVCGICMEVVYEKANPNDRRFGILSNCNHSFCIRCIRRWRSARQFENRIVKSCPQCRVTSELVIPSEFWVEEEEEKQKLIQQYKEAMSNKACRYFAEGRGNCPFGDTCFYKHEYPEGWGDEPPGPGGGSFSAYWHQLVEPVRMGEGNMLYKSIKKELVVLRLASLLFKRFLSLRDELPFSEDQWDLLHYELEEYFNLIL
Excerpt: as §1

UniProt O14544 = molecular target: T4, UniProt O14544 (Homo sapiens, UniProt O14544); conditions: for inhibition at 100 µM: read-out: percent_inhibition
T4 construct: 200 μL of lysate containing 5 mg/ml proteome was treated with 2 μL of 100× compound stock; endogenous in cells
T4 sequence (O14544 1-535): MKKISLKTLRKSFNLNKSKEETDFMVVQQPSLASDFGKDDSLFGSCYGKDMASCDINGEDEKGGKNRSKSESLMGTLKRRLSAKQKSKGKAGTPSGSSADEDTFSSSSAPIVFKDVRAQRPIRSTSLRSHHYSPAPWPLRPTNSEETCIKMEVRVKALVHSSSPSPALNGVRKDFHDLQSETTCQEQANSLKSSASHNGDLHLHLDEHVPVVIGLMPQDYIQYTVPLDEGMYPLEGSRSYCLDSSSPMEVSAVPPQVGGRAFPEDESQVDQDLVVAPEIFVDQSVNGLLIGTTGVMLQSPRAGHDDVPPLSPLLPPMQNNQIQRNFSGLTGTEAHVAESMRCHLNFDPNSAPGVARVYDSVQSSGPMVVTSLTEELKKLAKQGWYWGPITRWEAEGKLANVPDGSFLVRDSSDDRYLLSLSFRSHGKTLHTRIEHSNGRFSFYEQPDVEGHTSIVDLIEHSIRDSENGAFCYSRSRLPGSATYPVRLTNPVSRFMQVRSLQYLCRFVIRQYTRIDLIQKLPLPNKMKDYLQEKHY
Excerpt: as §1

UniProt Q9BZY9 = molecular target: T5, UniProt Q9BZY9 (Homo sapiens, UniProt Q9BZY9)
T5 construct: 200 μL of lysate containing 5 mg/ml proteome was treated with 2 μL of 100× compound stock; endogenous in cells
T5 sequence (Q9BZY9 1-425): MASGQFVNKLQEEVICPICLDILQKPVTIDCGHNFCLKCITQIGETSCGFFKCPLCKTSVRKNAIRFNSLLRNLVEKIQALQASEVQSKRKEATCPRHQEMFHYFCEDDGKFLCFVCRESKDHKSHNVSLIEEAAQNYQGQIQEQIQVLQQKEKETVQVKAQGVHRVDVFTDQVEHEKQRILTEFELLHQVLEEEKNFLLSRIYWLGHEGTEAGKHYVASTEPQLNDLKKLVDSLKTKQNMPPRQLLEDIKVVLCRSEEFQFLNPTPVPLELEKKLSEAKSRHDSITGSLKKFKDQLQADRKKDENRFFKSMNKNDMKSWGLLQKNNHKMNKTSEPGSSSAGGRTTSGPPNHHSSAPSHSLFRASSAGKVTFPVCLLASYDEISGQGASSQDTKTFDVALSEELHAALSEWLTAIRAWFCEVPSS
Excerpt: as §1

UniProt Q9C035 = molecular target: T6, UniProt Q9C035 (Homo sapiens, UniProt Q9C035)
T6 construct: 200 μL of lysate containing 5 mg/ml proteome was treated with 2 μL of 100× compound stock; endogenous in cells
Excerpt: as §1

[1] = 100 uM, read-out: KB05_100 uM_percent_inhibition
[2] = 500 uM, read-out: KB05_500 uM_percent_inhibition
[3] = 500 uM, read-out: percent inhibition
[4] = 100 uM, read-out: KB02_100 uM_percent_inhibition

T6 sequence (Q9C035 whole entry, change not shown): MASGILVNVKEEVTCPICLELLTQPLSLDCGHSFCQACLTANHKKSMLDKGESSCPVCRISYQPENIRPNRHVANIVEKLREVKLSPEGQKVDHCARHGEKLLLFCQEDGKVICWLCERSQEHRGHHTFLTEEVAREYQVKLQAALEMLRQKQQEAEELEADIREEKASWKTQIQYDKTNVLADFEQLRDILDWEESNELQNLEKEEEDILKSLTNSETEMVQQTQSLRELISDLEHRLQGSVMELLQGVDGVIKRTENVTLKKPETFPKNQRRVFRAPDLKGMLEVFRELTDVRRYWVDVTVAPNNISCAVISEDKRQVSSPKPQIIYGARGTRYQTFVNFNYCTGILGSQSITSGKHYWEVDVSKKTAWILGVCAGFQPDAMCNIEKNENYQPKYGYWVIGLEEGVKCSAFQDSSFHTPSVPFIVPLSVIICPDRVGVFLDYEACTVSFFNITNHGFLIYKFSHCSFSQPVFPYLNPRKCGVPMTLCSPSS
T2 sequence (Q9BUL5 whole entry, change not shown): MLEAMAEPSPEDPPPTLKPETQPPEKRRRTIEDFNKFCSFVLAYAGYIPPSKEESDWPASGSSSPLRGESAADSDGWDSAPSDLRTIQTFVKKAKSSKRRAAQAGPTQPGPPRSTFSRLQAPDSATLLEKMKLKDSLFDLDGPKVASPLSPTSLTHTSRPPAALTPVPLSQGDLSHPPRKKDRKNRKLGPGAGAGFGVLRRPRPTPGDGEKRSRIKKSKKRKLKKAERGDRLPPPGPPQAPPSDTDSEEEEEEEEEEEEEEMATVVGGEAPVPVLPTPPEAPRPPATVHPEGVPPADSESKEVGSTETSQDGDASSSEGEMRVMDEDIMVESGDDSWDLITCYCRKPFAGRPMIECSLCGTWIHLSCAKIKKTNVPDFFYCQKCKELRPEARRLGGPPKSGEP

inhibition at 100 µM (UniProt Q7Z3V4; [1]): 8%
inhibition at 500 µM (UniProt Q7Z3V4; [2]): 64%
inhibition at 100 µM (UniProt Q9BUL5; [1]): 29%
KB05_500 uM_percent_inhibition (UniProt Q9BUL5; 500 uM): 30%
inhibition at 500 µM (UniProt Q9BUL5; [2]): 27%
inhibition at 500 µM (UniProt Q13064; [3]): 23%
inhibition at 100 µM (UniProt O14544): 59%
inhibition at 500 µM (UniProt Q9BZY9; read-out: KB05_500 uM_percent_inhibition): 71%
inhibition at 100 µM (UniProt Q9C035; read-out: KB05_100 uM_percent_inhibition): 4%
Compound: C=CC(=O)N(c1ccccc1)c1ccc(Br)cc1 [KB05]

Compound: O=C(CCl)Nc1cc(C(F)(F)F)cc(C(F)(F)F)c1 [KBO3]
KB03_100 uM_percent_inhibition (UniProt Q7Z3V4; 100 uM): 33%
KB03_500 uM_percent_inhibition (UniProt Q7Z3V4; 500 uM): 56%
KB03_100 uM_percent_inhibition (UniProt Q9BUL5; 100 uM): 16%
percent inhibition (UniProt Q13064; 500 uM): 16%
percent_inhibition (UniProt O14544; 100 uM): 83%
KB03_500 uM_percent_inhibition (UniProt Q9BZY9; 500 uM): 48%
KB03_100 uM_percent_inhibition (UniProt Q9C035; 100 uM): 18%

Compound: COc1ccc2c(c1)CCCN2C(=O)CCl [KB02]
inhibition at 100 µM (UniProt Q7Z3V4; [4]): 42%
inhibition at 500 µM (UniProt Q7Z3V4; 500 uM, read-out: KB02_500 uM_percent_inhibition): 86%
inhibition at 100 µM (UniProt Q9BUL5; [4]): 13%
inhibition at 100 µM (UniProt Q13064; 100 uM, read-out: percent inhibition): 2%
inhibition at 500 µM (UniProt Q13064; [3]): 37%
inhibition at 100 µM (UniProt O14544): 35%
inhibition at 500 µM (UniProt Q9BZY9; read-out: KB02_500 uM_percent_inhibition): 68%
inhibition at 100 µM (UniProt Q9C035; read-out: KB02_100 uM_percent_inhibition): 13%
